Test system: subcutaneous tissue
Conditions: dog, in vivo
Description: The adaptability to an organism was tested in respect of the medical adhesive according to one embodiment of the present invention.
Three incision each having a length of 2 cm in the direction of the body axis were formed on the back of a dog anesthetized with acepromazine (0.5 mg/Kg) and pentobarbital (25 mg/Kg), and each of the subcutaneous regions of the incision portions was enlarged with scissors so as to have a diameter of about 2 cm.
Three kinds of treatments (A), (B) and (C) given below were applied to each of the incision portions:
(A) Dimethyl sulfoxide used as a reference substance was injected in an amount of 0.5 ml, and irradiation with an ultraviolet ray was not performed.
(B) The adhesive was injected in an amount of 0.5 ml, and irradiation with an ultraviolet ray was not performed.
(C) The adhesive was injected in an amount of 0.5 ml, and irradiation with an ultraviolet ray was performed.
One week later, each portion was collected under a general anesthesia so as to carry out the histological analysis.

C[S+](C)[O-] [(A) reference, Dimethyl sulfoxide]
Adaptability to organism (recognition as foreign matter): recognized as a foreign matter within the organism | Clinical inflammation reaction: not recognized | Inflammation reaction, histological: prominent histologically | Clinical inflammation reaction (pain), Second day (sc): ± | Clinical inflammation reaction (pain), Third day (sc): −
